Measurements from article PMC12084609, “Structural insights into small-molecule agonist recognition and activation of complement receptor C3aR” (The EMBO Journal, 2025).
Residue numbers refer to the chain shown, from its start. Where “and” joins values, the source holds several entries; their conditions need not be identical. Equal values may be shown once. Read-outs that look alike come from different tables or passages of the source.

Key:
[1] = system: C3aR; design: method as in Mathieu et al, 2005; Rodriguez et al, 2024; settings: blockade of calcium influx attributed to β-arrestin mediated internalization; ref Mathieu et al, 2005; Rodriguez et al, 2024; cited from earlier work
[2] = target: T1, C3aR V103^3.33A (Homo sapiens, UniProt Q16581, V103A); assay: GloSensor-based cAMP assay, C3aR mutant V103A; format: cell-based
T1 construct: expressed in transfected cells; host or cells: HEK293T
T1 sequence (Q16581 1-482 V103A): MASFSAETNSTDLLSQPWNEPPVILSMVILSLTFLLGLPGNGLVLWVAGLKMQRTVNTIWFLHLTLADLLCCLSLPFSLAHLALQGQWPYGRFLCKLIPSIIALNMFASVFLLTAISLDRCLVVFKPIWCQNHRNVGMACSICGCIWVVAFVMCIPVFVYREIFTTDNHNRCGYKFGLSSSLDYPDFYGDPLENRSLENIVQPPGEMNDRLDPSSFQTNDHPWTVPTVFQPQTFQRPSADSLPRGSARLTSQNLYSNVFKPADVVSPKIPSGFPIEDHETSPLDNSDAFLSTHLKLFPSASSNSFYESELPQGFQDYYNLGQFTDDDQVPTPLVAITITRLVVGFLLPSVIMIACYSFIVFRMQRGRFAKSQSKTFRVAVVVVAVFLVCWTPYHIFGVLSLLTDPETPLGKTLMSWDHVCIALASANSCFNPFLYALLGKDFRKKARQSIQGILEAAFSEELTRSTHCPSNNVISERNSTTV
Protocol: (§1) HEK293T cells were seeded on 6-well plates (NEST) and transfected with pGlosensor™-22F plasmids (Promega) and pcDNA3.1 plasmids encoding C3aR or its mutants an with N-terminal FLAG tag. After 48 h, cells were detached with Accutase solution (Sigma-Aldrich) and washed with PBS, and resuspended in assay buffer (CO2-independent medium with 0.5 mg mL^−1D-luciferin). 100,000–200,000 cells were seeded on 96-well white bottom plates (SPL) and incubated at 37 °C for 45 min followed by 45 min incubation at room temperature. After 90 min of incubation, basal luminescence signals were recorded. In total, 25 μl of test ligand with various concentrations and 1 μM Forskolin (Sigma-Aldrich) were treated to the cells and luminescence signals were measured by Tristar 2 LB 942 multimode reader (Berthold). […] Relative luminescence unit (%) was calculated with the signal of wells treated with vehicle as 0% and the signal of wells treated with 1 μM Forskolin as 100% (DiRaddo et al, [2014]). Nonlinear regression was performed using a three-parameter logistic equation.

[3] = target: T2, C3aR S26^1.35A (Homo sapiens, UniProt Q16581, S26A); assay: GloSensor-based cAMP assay, C3aR mutant S26A; format: cell-based
T2 construct: expressed in transfected cells; host or cells: HEK293T
T2 sequence (Q16581 1-482 S26A): T1 sequence (Q16581 1-482 V103A) with S26A, A103V
Protocol: as §1

[4] = system: C3aR; design: method as in Luo et al, 2025; settings: HEK293 cells; ref Luo et al, 2025; cited from earlier work
[5] = target: C3aR (Homo sapiens, UniProt Q16581); design: method as in Rowley et al, 2020; settings: inhibition of C3a-induced calcium release and mast cell degranulation; ref Rowley et al, 2020; cited from earlier work
[6] = target: T3, C3aR WT (Homo sapiens, UniProt Q16581); assay: GloSensor-based cAMP assay, WT C3aR (HEK293T); format: cell-based; settings: for remaining activity at 0.0001 µM / remaining activity at 10 pM: HEK-293T; for IC50: WT C3aR
T3 construct: expressed in transfected cells; host or cells: HEK293T
T3 sequence (Q16581 1-482): T1 sequence (Q16581 1-482 V103A) with A103V
Protocol: as §1

[7] = Dunnett's multiple comparisons test, WT minus mutant

Sequence of C3aR (Homo sapiens, UniProt Q16581) (Q16581 whole entry): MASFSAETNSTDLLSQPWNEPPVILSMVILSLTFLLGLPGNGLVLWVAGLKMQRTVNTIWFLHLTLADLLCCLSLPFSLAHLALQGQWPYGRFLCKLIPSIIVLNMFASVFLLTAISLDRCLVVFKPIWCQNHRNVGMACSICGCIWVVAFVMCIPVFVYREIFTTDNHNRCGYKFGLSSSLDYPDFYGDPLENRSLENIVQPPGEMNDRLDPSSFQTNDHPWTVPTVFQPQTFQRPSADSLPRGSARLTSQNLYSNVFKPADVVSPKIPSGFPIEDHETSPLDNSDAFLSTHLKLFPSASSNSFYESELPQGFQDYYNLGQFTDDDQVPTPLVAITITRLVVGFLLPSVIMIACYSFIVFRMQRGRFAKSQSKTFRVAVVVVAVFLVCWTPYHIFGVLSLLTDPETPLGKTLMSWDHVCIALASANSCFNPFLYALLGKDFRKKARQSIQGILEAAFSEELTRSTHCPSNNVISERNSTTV
Sequence of C3aR (Homo sapiens, UniProt Q16581) (P63096 2-354 partner limits assumed): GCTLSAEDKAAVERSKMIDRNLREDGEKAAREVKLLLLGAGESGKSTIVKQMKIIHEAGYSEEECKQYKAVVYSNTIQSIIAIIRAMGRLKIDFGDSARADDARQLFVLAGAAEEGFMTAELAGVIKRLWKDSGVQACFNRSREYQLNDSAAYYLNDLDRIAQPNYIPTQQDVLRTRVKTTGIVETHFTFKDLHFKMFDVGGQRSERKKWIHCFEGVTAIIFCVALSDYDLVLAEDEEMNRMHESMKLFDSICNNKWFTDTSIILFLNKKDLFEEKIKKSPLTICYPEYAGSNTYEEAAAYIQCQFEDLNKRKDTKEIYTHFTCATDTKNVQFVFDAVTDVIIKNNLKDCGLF
Sequence of C3aR (Homo sapiens, UniProt Q16581) (P62873 2-340 partner limits assumed): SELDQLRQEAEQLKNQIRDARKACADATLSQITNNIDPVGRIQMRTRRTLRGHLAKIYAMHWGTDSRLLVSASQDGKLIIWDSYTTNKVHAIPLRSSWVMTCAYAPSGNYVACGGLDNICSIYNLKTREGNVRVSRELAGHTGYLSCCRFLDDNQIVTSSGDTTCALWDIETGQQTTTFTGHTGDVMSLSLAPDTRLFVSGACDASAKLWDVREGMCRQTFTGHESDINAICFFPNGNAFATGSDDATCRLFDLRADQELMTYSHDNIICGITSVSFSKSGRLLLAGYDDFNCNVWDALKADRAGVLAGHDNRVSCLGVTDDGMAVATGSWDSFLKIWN
Sequence of C3aR (Homo sapiens, UniProt Q16581) (P59768 2-68 partner limits assumed): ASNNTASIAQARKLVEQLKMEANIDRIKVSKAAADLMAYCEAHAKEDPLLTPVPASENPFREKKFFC

SMILES: Cc1cc(C(c2ccc(Cl)cc2)c2ccc(Cl)cc2)sc1C(=O)N[C@@H](CCCNC(=N)N)C(=O)O [JR14a, reference compound]
- activity at C3aR [1]: potent agonist
- Mean Diff. of pIC50, WT vs. V103A [2, 7]: 0.201
- IC50 ([2]; IC50, V103^3.33A, dose-response plot): 8.93 nM
- ΔpIC50 ± SE of Diff. ([2]; V103^3.33A relative to WT C3aR): -0.20 ± 0.05
- IC50 ([2]; pIC50 (Replicate), V103^3.33A, individual replicates): 12.9 nM and 14.8 nM and 3.02 nM
- IC50 ([2]; pIC50 ± SEM (Mean), V103^3.33A, mean of independent experiments): 8.32 nM
- Mean Diff. of pIC50, WT vs. S26A [3, 7]: -0.137
- IC50 ([3]; IC50, S26^1.35A, dose-response plot): 5.58 nM
- remaining activity at 1 µM ([3]; S26A, Log[JR14a (M)] -6, single replicates, read-out: cAMP response (% Forskolin)): 7.75%
- remaining activity at 0.1 µM ([3]; S26A, Log[JR14a (M)] -7, single replicates, read-out: cAMP response (% Forskolin)): 8.58%
- remaining activity at 0.0001 µM ([3]; S26A, Log[JR14a (M)] -10, single replicates, read-out: cAMP response (% Forskolin)): 91.9%
- remaining activity at 10 pM ([3]; S26A, Log[JR14a (M)] -11, single replicates, read-out: cAMP response (% Forskolin)): 96.7%
- ΔpIC50 ± SE of Diff. ([3]; S26^1.35A relative to WT C3aR): 0.14 ± 0.07
- IC50 ([3]; pIC50 (Replicate), S26^1.35A, individual replicates): 1.62 nM and 4.57 nM and 7.41 nM
- IC50 ([3]; pIC50 ± SEM (Mean), S26^1.35A, mean of independent experiments): 3.8 nM
- forskolin-induced cAMP production [4]: inhibited forskolin-induced cAMP production in a dose-dependent manner
- IC50 values [5]: nanomolar range
- remaining activity at 0.0001 µM ([6]; read-out: cAMP response (% Forskolin), Log[ligand (M)] -10, individual replicates): 93.3%
- remaining activity at 10 pM ([6]; read-out: cAMP response (% Forskolin), Log[ligand (M)] -11, individual replicates): 95.3%
- remaining activity at 0.0001 µM ([6]; read-out: cAMP response (% Forskolin), WT, Log[JR14a (M)] -10, single replicates): 93.3%
- remaining activity at 10 pM ([6]; read-out: cAMP response (% Forskolin), WT, Log[JR14a (M)] -11, single replicates): 95.3%
- IC50 ([6]; decrease in cAMP levels, read-out: IC50): 4 nM
- IC50 ([6]; individual replicates, read-out: pIC50 (Replicate) (converted)): 6.31 nM and 3.98 nM and 5.01 nM
- mode of action at C3aR ([6]; from BRET and cAMP accumulation assays): agonist
- IC50 ([6]; pIC50 (Replicate), individual replicates): 2.63 nM and 3.09 nM and 7.08 nM (2×) and 5.75 nM (2×) and 11.5 nM and 8.13 nM and 2.45 nM (2×) and 1.78 nM
- IC50 ([6]; pIC50 Value, Figure EV1B numerical data, curve fit): 3.89 nM
- IC50 ([6]; pIC50 ± SEM (Mean), 1 μM Forskolin, mean of independent experiments): 4.57 nM
- Span Value ([6]; span of cAMP response (% Forskolin) curve, Figure EV1B numerical data): 84.43
